Experimental data published in ChEMBL document CHEMBL5214990, “Novel Aryl Alkamidazole Derivatives as Multifunctional Antifungal Inhibitors: Design, Synthesis, and Biological Evaluation” (J Med Chem, 2022).
≈ marks a conversion by molar mass, not a printed value. Calls of active or inactive are those of the source. The calls are words filed in the database; no cut-off is given here.

What was measured:
Candida albicans [1] = experiment: Antifungal activity against fluconazole-resistant Candida albicans 904 assessed as inhibition of fungal growth measured after 72 hrs by CLSI based liquid medium dilution method; type: functional
Candida albicans [2] = experiment: Induction of apoptosis in Candida albicans assessed as viable cells measured after 24 hrs by Annexin V-FITC/PI staining based flow cytometry (reference value: 95.7%); type: functional
Mus musculus [3] = experiment: Anti-inflammatory activity in mouse infected with Candida albicans assessed as reduction in NLRP3 expression in infection tissues at 20 mg/kg, ip administered on days 2,4,6,8,10,12 and measured on day 14 by western blot analysis; type: functional, organism-based; conditions: time 13.0 day
Candida albicans [4] = experiment: Antifungal activity against Candida albicans infected in mouse assessed as increase in animal's body weight at 20 mg/kg, ip administered on days 2,4,6,8,10,12 and measured on day 14; type: functional, organism-based; conditions: time 13.0 day
Candida albicans [5] = experiment: Induction of apoptosis in Candida albicans assessed as late apoptotic cells measured after 24 hrs by Annexin V-FITC/PI staining based flow cytometry (reference value: 0.44%); type: functional
Candida albicans [6] = experiment: Antifungal activity against fluconazole-resistant Candida albicans CaR assessed as inhibition of fungal growth measured after 72 hrs by CLSI based liquid medium dilution method; type: functional
Candida albicans [7] = experiment: Induction of apoptosis in Candida albicans assessed as early apoptotic cells measured after 24 hrs by Annexin V-FITC/PI staining based flow cytometry (reference value: 0.46%); type: functional
Candida albicans [8] = experiment: Antifungal activity against fluconazole-resistant Candida albicans 17# assessed as inhibition of fungal growth measured after 72 hrs by CLSI based liquid medium dilution method; type: functional
Candida albicans [9] = experiment: Induction of mitochondrial membrane depolarization in Candida albicans assessed as fungal cells with intact mitochondria measured after 24 hrs by JC-1 staining based flow cytometry (reference value: 95.9%); type: functional
Candida albicans [10] = experiment: Antifungal activity against Candida albicans infected in mouse assessed as reduction in total amount of fungal cells in infection region at 20 mg/kg, ip administered on days 2,4,6,8,10,12 and measured on day 14 by hematoxyin-eosin staining based analysis; type: functional, organism-based; conditions: time 13.0 day
Pichia kudriavzevii = experiment: Antifungal activity against Candida krusei ATCC 6258 assessed as inhibition of fungal growth measured after 72 hrs by CLSI based liquid medium dilution method; type: functional
Candida albicans [11] = experiment: Induction of mitochondrial membrane depolarization in Candida albicans assessed as fungal cells with depolarized mitochondria measured after 24 hrs by JC-1 staining based flow cytometry (reference value: 3.22%); type: functional
[12] = Hepatotoxicity in mouse infected with Candida albicans assessed as plasma ALT level at 20 mg/kg, ip administered on days 2,4,6,8,10,12 and measured on day 14 (reference value: 33.5 +/-3.4 IU/L); type: toxicity, organism-based; conditions: in vivo, 312 h, time 13 day
Candida albicans [13] = experiment: Antifungal activity against Candida albicans infected in mouse assessed as reduction in fungal endogenous infection symptoms at 20 mg/kg, ip administered on days 2,4,6,8,10,12 and measured on day 14 by GMS staining based analysis; type: functional, organism-based; conditions: time 13.0 day
Candida albicans [14] = experiment: Antifungal activity against Candida albicans ATCC SC5314 assessed as inhibition of fungal growth measured after 72 hrs by CLSI based liquid medium dilution method; type: functional
Candida albicans [15] = experiment: Antifungal activity against Candida albicans infected in mouse assessed as disappearance of nuclear aggregation in the infection region at 20 mg/kg, ip administered on days 2,4,6,8,10,12 and measured on day 14 by hematoxyin-eosin staining based analysis; type: functional, organism-based; conditions: time 13.0 day
Cryptococcus neoformans = experiment: Antifungal activity against Cryptococcus neoformans assessed as inhibition of fungal growth measured after 72 hrs by CLSI based liquid medium dilution method; type: functional
Candida albicans [16] = experiment: Antifungal activity against Candida albicans infected in mouse assessed as reduction in total amount of fungal cells in infection region at 20 mg/kg, ip administered on days 2,4,6,8,10,12 and measured on day 14 by GMS staining based analysis; type: functional, organism-based; conditions: time 13.0 day
Mus musculus [17] = experiment: Anti-inflammatory activity in mouse infected with Candida albicans assessed as reduction in NF-kappaB p65 expression in infection tissues at 20 mg/kg, ip administered on days 2,4,6,8,10,12 and measured on day 14 by western blot analysis; type: functional, organism-based; conditions: time 13.0 day
Candida albicans [18] = experiment: Antifungal activity against Candida albicans assessed as inhibition of fungal cell proliferation by measuring decrease in fungal cell density measured after 24 hrs; type: functional, organism-based
Candida tropicalis = experiment: Antifungal activity against Candida tropicalis ATCC 1369 assessed as inhibition of fungal growth measured after 72 hrs by CLSI based liquid medium dilution method; type: functional
Candida albicans [19] = experiment: Antifungal activity against Candida albicans infected in mouse assessed as disappearance of nuclear aggregation in the infection region at 20 mg/kg, ip administered on days 2,4,6,8,10,12 and measured on day 14 by GMS staining based analysis; type: functional, organism-based; conditions: time 13.0 day
Mus musculus [20] = experiment: Anti-inflammatory activity in mouse infected with Candida albicans assessed as reduction in COX-2 expression in infection tissues at 20 mg/kg, ip administered on days 2,4,6,8,10,12 and measured on day 14 by western blot analysis; type: functional, organism-based; conditions: time 13.0 day
Candida albicans [21] = experiment: Antifungal activity against Candida albicans infected in mouse assessed as reduction in fungal proliferation in the infection region at 20 mg/kg, ip administered on days 2,4,6,8,10,12 and measured on day 14 by hematoxylin-eosin staining based analysis; type: functional, organism-based; conditions: time 13.0 day
Candida albicans [22] = experiment: Antifungal activity against Candida albicans infected in mouse assessed as reduction in necrotic cell fragments in intercellular spaces of the infection region at 20 mg/kg, ip administered on days 2,4,6,8,10,12 and measured on day 14 by hematoxyin-eosin staining based analysis; type: functional, organism-based; conditions: time 13.0 day
[23] = biological target: T1, Lanosterol 14-alpha demethylase (Candida albicans (strain SC5314 / ATCC MYA-2876) (Yeast), UniProt P10613); experiment: Inhibition of CYP51 in Candida albicans ATCC SC5314 assessed as reduction in substrate consumption using lanosterol as substrate preincubated for 30 mins followed by substrate addition and measured after 60 mins by HPLC analysis
T1 sequence (P10613 whole entry): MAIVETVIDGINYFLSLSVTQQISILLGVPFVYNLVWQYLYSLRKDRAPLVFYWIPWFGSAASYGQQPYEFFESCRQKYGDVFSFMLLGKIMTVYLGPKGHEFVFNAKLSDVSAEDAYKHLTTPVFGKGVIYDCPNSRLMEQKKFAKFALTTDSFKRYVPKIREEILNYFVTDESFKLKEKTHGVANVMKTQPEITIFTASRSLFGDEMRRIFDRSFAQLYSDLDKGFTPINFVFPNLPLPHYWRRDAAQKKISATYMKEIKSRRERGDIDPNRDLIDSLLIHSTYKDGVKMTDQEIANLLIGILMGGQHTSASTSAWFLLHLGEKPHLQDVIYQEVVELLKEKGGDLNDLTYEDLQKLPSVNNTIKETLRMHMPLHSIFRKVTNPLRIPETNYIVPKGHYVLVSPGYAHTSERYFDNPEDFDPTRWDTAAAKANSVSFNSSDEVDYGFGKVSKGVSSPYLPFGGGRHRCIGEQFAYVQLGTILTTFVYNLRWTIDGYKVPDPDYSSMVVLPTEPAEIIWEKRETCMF

Candida albicans [24] = experiment: Induction of apoptosis in Candida albicans assessed as necrotic cells measured after 24 hrs by Annexin V-FITC/PI staining based flow cytometry (reference value: 3.37%); type: functional
Mus musculus [25] = experiment: Anti-inflammatory activity in mouse infected with Candida albicans assessed as reduction in IL-6R expression in spleen at 20 mg/kg, ip administered on days 2,4,6,8,10,12 and measured on day 14 by immunohistochemical analysis; type: functional, organism-based; conditions: time 13.0 day
Candida albicans [26] = experiment: Antifungal activity against Candida albicans infected in mouse assessed as reduction in fungal proliferation in the infection region at 20 mg/kg, ip administered on days 2,4,6,8,10,12 and measured on day 14 by GMS staining based analysis; type: functional, organism-based; conditions: time 13.0 day
Mus musculus [27] = experiment: Anti-inflammatory activity in mouse infected with Candida albicans assessed as reduction in IL-6R expression in infection tissues at 20 mg/kg, ip administered on days 2,4,6,8,10,12 and measured on day 14 by western blot analysis; type: functional, organism-based; conditions: time 13.0 day
[28] = biological target: T1, Lanosterol 14-alpha demethylase; experiment: Inhibition of CYP51 in Candida albicans ATCC SC5314 assessed as ergosterol content at 4 ug/ml measured after 48 hrs by GC-MS analysis (reference value: 95.61%); set-up: scale not given: the % may be the effect or the level left; conditions: at 4 µg/mL
[29] = biological target: T1, Lanosterol 14-alpha demethylase; experiment: Inhibition of CYP51 in Candida albicans ATCC SC5314 assessed as eburicol content at 4 ug/ml measured after 48 hrs by GC-MS analysis (reference value: 1.84%); set-up: scale not given: the % may be the effect or the level left; conditions: at 4 µg/mL

For `C[C@H](C(=O)N(C)CC(O)(Cn1ccnc1)c1ccc(Cl)cc1)c1ccc(-c2ccccc2)c(F)c1` (stereo partly specified), the MIC50 (Candida albicans [1]) was 2 µg/mL (≈ 4.07 µM), the Activity (Candida albicans [2]) was 44.4% and the Activity (Mus musculus [3]) was “Active”. For the same compound, the Activity (Candida albicans [4]) was “Active”, the Activity (Candida albicans [5]) was 19.4% and the MIC50 (Candida albicans [6]) was 1 µg/mL (≈ 2.03 µM). It also gave an Activity (Candida albicans [7]) of 1.8%, an MIC50 (Candida albicans [8]) of 2 µg/mL (≈ 4.07 µM) and an Activity (Candida albicans [9]) of 32.6%. For the same compound, the Activity (Candida albicans [10]) was “Active”, the MIC50 (Pichia kudriavzevii) was 0.25 µg/mL (≈ 0.508 µM) and the Activity (Candida albicans [11]) was 67.3%. The Activity [12] was 42.4 IU/L, the Activity (Candida albicans [13]) was “Active” and the MIC50 (Candida albicans [14]) was 0.125 µg/mL (≈ 0.254 µM). For the same compound, the Activity (Candida albicans [15]) was “Active”, the MIC50 (Cryptococcus neoformans) was 0.5 µg/mL (≈ 1.02 µM) and the Activity (Candida albicans [16]) was “Active”. The Activity (Mus musculus [17]) was “Active”, the Activity (Candida albicans [18]) was “Active” and the MIC50 (Candida tropicalis) was 0.25 µg/mL (≈ 0.508 µM). The Activity (Candida albicans [19]) was “Active”, the Activity (Mus musculus [20]) was “Active” and the Activity (Candida albicans [21]) was “Active”. The Activity (Candida albicans [22]) was “Active”, the IC50 [23] was 190 nM and the Activity (Candida albicans [24]) was 34.3%. For the same compound, the Activity (Mus musculus [25]) was “Active”, the Activity (Candida albicans [26]) was “Active” and the Activity (Mus musculus [27]) was “Active”. For the same compound, the Activity [28] was 13.51% and the Activity [29] was 43.28%.
With `C[C@H](C(=O)N(C)CC(O)(Cn1ccnc1)c1ccc(Cl)cc1Cl)c1cccc(C(=O)c2ccccc2)c1` (stereo partly specified) the MIC50 (Candida albicans [1]) was 1 µg/mL (≈ 1.86 µM), the Activity (Candida albicans [2]) was 43.8% and the Activity (Mus musculus [3]) was “Active”. The Activity (Candida albicans [4]) was “Active”, the Activity (Candida albicans [5]) was 28.1% and the MIC50 (Candida albicans [6]) was 1 µg/mL (≈ 1.86 µM). The Activity (Candida albicans [7]) was 2.13%, the MIC50 (Candida albicans [8]) was 2 µg/mL (≈ 3.73 µM) and the Activity (Candida albicans [9]) was 53.1%. The Activity (Candida albicans [10]) was “Active”, the MIC50 (Pichia kudriavzevii) was 0.125 µg/mL (≈ 0.233 µM) and the Activity (Candida albicans [11]) was 66.6%. The Activity [12] was 43.2 IU/L, the Activity (Candida albicans [13]) was “Active” and the MIC50 (Candida albicans [14]) was 0.125 µg/mL (≈ 0.233 µM). For the same compound, the Activity (Candida albicans [15]) was “Active”, the MIC50 (Cryptococcus neoformans) was 0.25 µg/mL (≈ 0.466 µM) and the Activity (Candida albicans [16]) was “Active”. The Activity (Mus musculus [17]) was “Active”, the Activity (Candida albicans [18]) was “Active” and the MIC50 (Candida tropicalis) was 0.25 µg/mL (≈ 0.466 µM). The Activity (Candida albicans [19]) was “Active”, the Activity (Mus musculus [20]) was “Active” and the Activity (Candida albicans [21]) was “Active”. For the same compound, the Activity (Candida albicans [22]) was “Active”, the IC50 [23] was 160 nM and the Activity (Candida albicans [24]) was 26%. The Activity (Mus musculus [25]) was “Active”, the Activity (Candida albicans [26]) was “Active” and the Activity (Mus musculus [27]) was “Active”. The Activity [28] was 7.95% and the Activity [29] was 50.87%.
In the case of `OC(Cn1cncn1)(Cn1cncn1)c1ccc(F)cc1F` [FLUCONAZOLE], the MIC50 (Candida albicans [1]) is reported as > 8 µg/mL, the Activity (Candida albicans [2]) is reported as 68.7% and the Activity (Mus musculus [3]) is reported as “Active”. For the same compound, the Activity (Candida albicans [4]) was “Active”, the Activity (Candida albicans [5]) was 5.96% and the MIC50 (Candida albicans [6]) was > 8 µg/mL. For the same compound, the Activity (Candida albicans [7]) was 12.3%, the MIC50 (Candida albicans [8]) was > 8 µg/mL and the Activity (Candida albicans [9]) was 60.8%. For the same compound, the Activity (Candida albicans [10]) was “Active”, the MIC50 (Pichia kudriavzevii) was 1 µg/mL (≈ 3.27 µM) and the Activity (Candida albicans [11]) was 19.1%. The Activity [12] was 46.1 IU/L, the Activity (Candida albicans [13]) was “Active” and the MIC50 (Candida albicans [14]) was 0.5 µg/mL (≈ 1.63 µM). For the same compound, the Activity (Candida albicans [15]) was “Active”, the MIC50 (Cryptococcus neoformans) was 0.5 µg/mL (≈ 1.63 µM) and the Activity (Candida albicans [16]) was “Active”. The Activity (Mus musculus [17]) was “Active”, the Activity (Candida albicans [18]) was “Active” and the MIC50 (Candida tropicalis) was 0.5 µg/mL (≈ 1.63 µM). The Activity (Candida albicans [19]) was “Active”, the Activity (Mus musculus [20]) was “Active” and the Activity (Candida albicans [21]) was “Active”. For the same compound, the Activity (Candida albicans [22]) was “Active”, the IC50 [23] was 110 nM and the Activity (Candida albicans [24]) was 13%. The Activity (Mus musculus [25]) was “Active”, the Activity (Candida albicans [26]) was “Active” and the Activity (Mus musculus [27]) was “Active”. For the same compound, the Activity [28] was 20.57% and the Activity [29] was 40.17%.
